Data taken from US20230121689A1, “CEPHALOSPORIN ANTIBACTERIAL COMPOUND AND PHARMACEUTICAL APPLICATION THEREOF” (priority 2020, published 2023).
In brackets after ≈: the same amount, converted by molar mass. Where two headings read alike, the source gives them in different places.

What was measured:
Format in all cases: cell-based
[1] = system: Carbapenem-resistant Acinetobacter baumannii (CRAB); experiment: Test Example 1: antibacterial activity test (MIC)
Description: (§1) The test compounds were diluted in a gradient and used for an MIC assay on the test strains. The test compounds at an initial assay concentration of 32 μg/mL were diluted in a 2-fold gradient (11 concentration points in total), and two duplicate wells were set for each concentration. Additional wells without drug dosing were set as growth controls. The minimum inhibitory concentration (MIC) assay was performed with reference to the Clinical and Laboratory Standards Institute (CLSI) guidelines.
(§2) After the frozen strains were subcultured, a single colony was picked and re-suspended in normal saline or sterile water in a tube. The bacterial suspension was vortexed and adjusted to 0.5 McF using a spectrophotometer at the wavelength of 530 nm. The bacterial solution was taken by a pipette, added to a culture medium, diluted and mixed well, and seeded to a bacterial assay plate.
(§3) The 96-well plate was affixed with a disposable sealing film, shaken and mixed well, and visually observed using a plate reader. The minimum concentration of the compounds capable of inhibiting the growth of bacteria was defined as MIC as compared to the growth controls.

[2] = system: Carbapenem-resistant Enterobacteriaceae (CRE); experiment: Test Example 1: antibacterial activity test (MIC)
Description: as §1, §2, §3

[3] = system: Carbapenem-resistant Pseudomonas aeruginosa (CRPA); experiment: Test Example 1: antibacterial activity test (MIC)
Description: as §1, §2, §3

[4] = system: Carbapenem-resistant Acinetobacter baumannii (CRAB, Acinetobacter baumannii); experiment: Test Example 2: antibacterial activity test (MIC); conditions: ID-CAMHB, read-out: ID-CAMHB, MIC
Description: (§4) 1. The test compounds were dissolved in sterile normal saline, vortexed for uniformly mixing, and diluted in a 2-fold dilution with the sterile normal saline (11 concentration points in total). The test concentration range was 32-0.031 μg/mL, and two duplicate wells were set for each concentration. Additional wells without drug dosing were set as growth controls. 2. 4 μL of the diluent was added to 196 μL of the bacterial suspension in a 96-well plate (the bacterial count in the bacterial suspension was 2-8×10^5 colony forming units/mL). 3.
(§5) The minimum inhibitory concentration (MIC) assay was performed with reference to the Clinical and Laboratory Standards Institute (CLSI) guidelines.

[5] = system: Carbapenem-resistant Enterobacteriaceae (CRE, Klebsiella pneumoniae); experiment: Test Example 2: antibacterial activity test (MIC); conditions: ID-CAMHB, read-out: ID-CAMHB, MIC
Description: as §4, §5

[6] = system: Carbapenem-resistant Pseudomonas aeruginosa (CRPA, Pseudomonas aeruginosa); experiment: Test Example 2: antibacterial activity test (MIC); conditions: ID-CAMHB, read-out: ID-CAMHB, MIC
Description: as §4, §5

[7] = system: Control Strain Pseudomonas aeruginosa ATCC 27853; experiment: Test Example 2: antibacterial activity test (MIC); conditions: ATCC27853, ID-CAMHB, ATCC 27853, read-out: ID-CAMHB, MIC
Description: as §4, §5

[8] = system: Control strain Escherichia coli ATCC 25922; experiment: Test Example 2: antibacterial activity test (MIC); conditions: ATCC25922, ID-CAMHB, ATCC 25922, read-out: ID-CAMHB, MIC
Description: as §4, §5

[9] = FDA-CDC AR-BANK #0036 (strB, OXA-65, OXA-24, strA, sul2)
[10] = FDA-CDC AR-BANK #0052 (OXA-58, OXA-100, sul2)
[11] = FDA-CDC AR-BANK #0063 (OXA-23, OXA-65, OXA-24, sul2)
[12] = FDA-CDC AR-BANK #0070 (OXA-58, OXA-100, sul2)
[13] = FDA-CDC AR-BANK #0101 (strB, OXA-65, OXA-24, strA, sul2)
[14] = FDA-CDC AR-BANK #0361 (TEM-1; SHV-12; KPC-2)
[15] = FDA-CDC AR-BANK #0362 (TEM-1; SHV-11; KPC-2)
[16] = FDA-CDC AR-BANK #0363 (TEM-1; SHV-12; KPC-2)
[17] = FDA-CDC AR-BANK #0438 (aph(3′)-Ia, dfrA12, KPC-3, OmpK35, oqxA, oqxB, SHV-11)
[18] = FDA-CDC AR-BANK #0453 (KPC-3, OmpK35, oqxA, oqxB, SHV-11, TEM-1B)
[19] = FDA-CDC AR-BANK #0439 (aac(6′)-Il, aadA1b, BCR1, IMP-18, OXA-50)
[20] = FDA-CDC AR-BANK #0444 (aac(6′)-Il, dfrB5, OXA-4, tet(G), VIM-2)
[21] = FDA-CDC AR-BANK #0457 (aadA6, VIM-2)

CC(C)(O/N=C(\C(=O)N[C@@H]1C(=O)N2C(C(=O)[O-])=C(C[N+]3(CCCC[C@H](N)C(=O)O)CCCC3)CSC12)c1csc(N)n1)C(=O)O (stereo partly shown) [Compound 1]
MIC ([1]; CRAB strain No. 100085): > 32 µg/mL
MIC ([1]; CRAB strain No. 100333): > 32 µg/mL
MIC ([1]; CRAB strain No. 110440): > 32 µg/mL
MIC ([1]; CRAB strain No. 110477): > 32 µg/mL
MIC ([1]; CRAB strain No. 110517): > 32 µg/mL
MIC ([2]; CRE strain No. 100109): > 32 µg/mL
MIC ([2]; CRE strain No. 100186): > 32 µg/mL
MIC ([2]; CRE strain No. 110502): > 32 µg/mL
MIC ([2]; CRE strain No. 110525): > 32 µg/mL
MIC ([2]; CRE strain No. 311277): > 32 µg/mL
MIC ([3]; CRPA strain No. 100110): 16 µg/mL (≈ 24 µM)
MIC ([3]; CRPA strain No. 110163): > 32 µg/mL
MIC ([3]; CRPA strain No. 110224): 32 µg/mL (≈ 47.9 µM)
MIC ([3]; CRPA strain No. 110358): > 32 µg/mL
MIC ([3]; CRPA strain No. 110390): > 32 µg/mL

CON(CC[N+]1(CC2=C(C(=O)O)N3C(=O)[C@@H](NC(=O)/C(=N\OC(C)(C)C(=O)O)c4csc(N)n4)[C@H]3SC2)CCCC1)C(=O)c1ccc(O)c(O)c1Cl [Compound 3]
MIC ([1]; CRAB strain No. 100085): 3 µg/mL
MIC ([1]; CRAB strain No. 100333): 6 µg/mL
MIC ([1]; CRAB strain No. 110440): 4 µg/mL
MIC ([1]; CRAB strain No. 110477): 4 µg/mL
MIC ([1]; CRAB strain No. 110517): 1 µg/mL
MIC ([2]; CRE strain No. 100109): 3 µg/mL
MIC ([2]; CRE strain No. 100186): 6 µg/mL
MIC ([2]; CRE strain No. 110502): > 32 µg/mL
MIC ([2]; CRE strain No. 110525): 16 µg/mL
MIC ([2]; CRE strain No. 311277): 8 µg/mL
MIC ([3]; CRPA strain No. 100110): 0.562 µg/mL
MIC ([3]; CRPA strain No. 110163): 1 µg/mL
MIC ([3]; CRPA strain No. 110224): 1 µg/mL
MIC ([3]; CRPA strain No. 110358): 2 µg/mL
MIC ([3]; CRPA strain No. 110390): 2 µg/mL

CC(C)(O/N=C(\C(=O)N[C@@H]1C(=O)N2C(C(=O)O)=C(C[N+]3(CCNC(=N)c4ccc(O)c(O)c4Cl)CCCC3)CS[C@H]12)c1csc(N)n1)C(=O)O [Compound 9]
MIC [4, 9]: > 32 µg/mL
MIC [4, 10]: > 32 µg/mL
MIC [4, 11]: > 32 µg/mL
MIC [4, 12]: > 32 µg/mL
MIC [4, 13]: > 32 µg/mL
MIC [5, 14]: > 32 µg/mL
MIC [5, 15]: 16 µg/mL
MIC [5, 16]: > 32 µg/mL
MIC [5, 17]: > 32 µg/mL
MIC [5, 18]: > 32 µg/mL
MIC [6, 19]: > 32 µg/mL
MIC ([6]; FDA-CDC AR-BANK #0441 (KPC-2)): > 32 µg/mL
MIC [6, 20]: > 32 µg/mL
MIC [6, 21]: > 32 µg/mL
MIC [7]: > 32 µg/mL
MIC [8]: 16 µg/mL

CC(C)(O/N=C(\C(=O)N[C@@H]1C(=O)N2C(C(=O)O)=C(C[N+]3(CCNC(=S)c4ccc(O)c(O)c4Cl)CCCC3)CS[C@H]12)c1csc(N)n1)C(=O)O [Compound 7]
MIC [4, 9]: 2 µg/mL
MIC [4, 10]: 0.25 µg/mL
MIC [4, 11]: > 32 µg/mL
MIC [4, 12]: 0.125 µg/mL
MIC [4, 13]: 4 µg/mL
MIC [5, 14]: 1 µg/mL
MIC [5, 15]: 1 µg/mL
MIC [5, 16]: 0.5 µg/mL
MIC [5, 17]: 2 µg/mL
MIC [5, 18]: 4 µg/mL
MIC [6, 19]: 8 µg/mL
MIC ([6]; FDA-CDC AR-BANK #0441 (KPC-2)): 8 µg/mL
MIC [6, 20]: 32 µg/mL
MIC [6, 21]: 1 µg/mL
MIC [7]: 0.125 µg/mL
MIC [8]: 0.125 µg/mL

CC(C)(O/N=C(\C(=O)N[C@@H]1C(=O)N2C(C(=O)O)=C(C[N+]3(CCNC(=O)c4ccc5cc(O)c(O)cc5c4)CCCC3)CS[C@H]12)c1csc(N)n1)C(=O)O [Compound 8]
MIC [4, 9]: 0.25 µg/mL
MIC [4, 10]: 0.0625 µg/mL
MIC [4, 11]: 8 µg/mL
MIC [4, 12]: 0.125 µg/mL
MIC [4, 13]: 2 µg/mL
MIC [5, 14]: 2 µg/mL
MIC [5, 15]: 1 µg/mL
MIC [5, 16]: 0.25 µg/mL
MIC [5, 17]: 2 µg/mL
MIC [5, 18]: 2 µg/mL
MIC [6, 19]: 1 µg/mL
MIC ([6]; FDA-CDC AR-BANK #0441 (KPC-2)): 4 µg/mL
MIC [6, 20]: 4 µg/mL
MIC [6, 21]: 0.25 µg/mL
MIC [7]: 0.25 µg/mL
MIC [8]: 0.25 µg/mL

CC(=O)N(O)CC[N+]1(CC2=C(C(=O)O)N3C(=O)[C@@H](NC(=O)/C(=N\OC(C)(C)C(=O)O)c4csc(N)n4)[C@H]3SC2)CCCC1 [Compound 5]
MIC [4, 9]: > 32 µg/mL
MIC [4, 10]: > 32 µg/mL
MIC [4, 11]: > 32 µg/mL
MIC [4, 12]: > 32 µg/mL
MIC [4, 13]: > 32 µg/mL
MIC [5, 14]: > 32 µg/mL
MIC [5, 15]: > 32 µg/mL
MIC [5, 16]: > 32 µg/mL
MIC [5, 17]: > 32 µg/mL
MIC [5, 18]: > 32 µg/mL
MIC [6, 19]: > 32 µg/mL
MIC ([6]; FDA-CDC AR-BANK #0441 (KPC-2)): > 32 µg/mL
MIC [6, 20]: > 32 µg/mL
MIC [6, 21]: > 32 µg/mL
MIC [7]: > 32 µg/mL
MIC [8]: > 32 µg/mL

CC(C)(O/N=C(\C(=O)N[C@@H]1C(=O)N2C(C(=O)O)=C(C[N+]3(CCNC(=S)Nc4ccc(O)c(O)c4Cl)CCCC3)CS[C@H]12)c1csc(N)n1)C(=O)O [Compound 4]
MIC ([1]; CRAB strain No. 100085): > 32 µg/mL
MIC ([1]; CRAB strain No. 100333): > 32 µg/mL
MIC ([1]; CRAB strain No. 110440): > 32 µg/mL
MIC ([1]; CRAB strain No. 110477): > 32 µg/mL
MIC ([1]; CRAB strain No. 110517): > 32 µg/mL
MIC ([2]; CRE strain No. 100109): > 32 µg/mL
MIC ([2]; CRE strain No. 100186): > 32 µg/mL
MIC ([2]; CRE strain No. 110502): > 32 µg/mL
MIC ([2]; CRE strain No. 110525): > 32 µg/mL
MIC ([2]; CRE strain No. 311277): > 32 µg/mL
MIC ([3]; CRPA strain No. 100110): 16 µg/mL
MIC ([3]; CRPA strain No. 110163): > 32 µg/mL
MIC ([3]; CRPA strain No. 110224): > 32 µg/mL
MIC ([3]; CRPA strain No. 110358): > 32 µg/mL
MIC ([3]; CRPA strain No. 110390): > 32 µg/mL

CC(C)(O/N=C(\C(=O)N[C@@H]1C(=O)N2C(C(=O)O)=C(C[N+]3(CCN(O)C(=O)c4ccc(O)c(O)c4Cl)CCCC3)CS[C@H]12)c1csc(N)n1)C(=O)O [Compound 6]
MIC ([1]; CRAB strain No. 100085): 3 µg/mL
MIC ([1]; CRAB strain No. 100333): 6 µg/mL
MIC ([1]; CRAB strain No. 110440): 4 µg/mL
MIC ([1]; CRAB strain No. 110477): 3 µg/mL
MIC ([1]; CRAB strain No. 110517): 1 µg/mL
MIC ([2]; CRE strain No. 100109): 2 µg/mL
MIC ([2]; CRE strain No. 100186): 1.5 µg/mL
MIC ([2]; CRE strain No. 110502): 32 µg/mL
MIC ([2]; CRE strain No. 110525): 4 µg/mL
MIC ([2]; CRE strain No. 311277): 8 µg/mL
MIC ([3]; CRPA strain No. 100110): 0.063 µg/mL
MIC ([3]; CRPA strain No. 110163): 0.5 µg/mL
MIC ([3]; CRPA strain No. 110224): 0.625 µg/mL
MIC ([3]; CRPA strain No. 110358): 4 µg/mL
MIC ([3]; CRPA strain No. 110390): 2 µg/mL
